# Calls of active or inactive are those of the source. The rule behind the calls is not given here.
# Tested on: L. donovani-infected THP-1 macrophages, intracellular amastigote imaging
# Assay: intracellular L. donovani amastigote inhibition, imaging, THP-1 host macrophages, host toxicity (AID 1159564)
# [1] = measured here: THP-1 host cell toxicity
# [2] = measured here: amastigotes per macrophage
Structure (SMILES),IC50,IC50 [1] [µM],IC50 [2] [µM]
CC1=C(C(=O)Nc2ccc(Cl)cc2)C(c2ccncc2)n2ncc(C(=O)Nc3ccccc3)c2N1 (stereo not given),> 50 µM (inactive),13,> 50
CS(=O)(=O)c1ccc(Nc2nccc(Nc3n[nH]c4ccc(F)cc34)n2)c(F)c1,13 µM,16,10
O=C(COc1nn(-c2ccccc2)c2ncccc12)NCc1ccccc1,0.32 µM,> 50,0.079
Cn1cncc1CN1CCC2(CC1)COC(Cc1ccccc1)C2 (stereo not given),> 50 µM (inactive),> 50,
O=C(CSc1nnc2ccc(-c3ccc(F)cc3)nn12)N1CCCCC1,> 50 µM (inactive),6.3,> 50
O=C(c1ccc(OCCCc2cnc[nH]2)cc1)C1CC1,> 50 µM (inactive),> 50,7.9
Cc1ncsc1CNc1cnc(-c2ccc3c(c2)OCCO3)c(-c2cnn(C)c2)c1,16 µM,16,13
COc1ccc(S(=O)(=O)NCc2ccc(-c3ccc(CN(C)CCO)cc3)cc2)cc1,16 µM,20,20
O=C(Nc1nc(-c2ccccn2)cs1)c1ccc(S(=O)(=O)N2CCCCC2)cc1,1.3 µM,13,1
CCOc1ccc(CN(C)Cc2nc(N)nc(Nc3ccc(C)cc3)n2)cc1,4 µM,40,3.2
O=C(Cn1cnc2cc([N+](=O)[O-])ccc2c1=O)NCCc1ccc(Cl)cc1Cl,> 50 µM (inactive),> 50,> 50
CC(C(=O)Nc1ccccc1F)N(C)CC(=O)Nc1cccc2ccccc12 (stereo not given),> 50 µM (inactive),> 50,> 50
Fc1ccc(Nc2nc(-c3ccccn3)cs2)cc1,10 µM,> 50,6.3
N#Cc1ccc(C(=O)Nc2cccc(-c3cccc(CN4CCC(O)CC4)c3)c2)cc1,16 µM,16,7.9
COc1ccc(CN2C(=O)C(O)(CC(=O)c3ccncc3)c3cc(Br)ccc32)cc1OC (stereo not given),25 µM,40,20
O=C(N[C@H](CO)c1ccccc1)c1ccc(-c2c[nH]c3nccc(C(F)(F)F)c23)s1,25 µM,13,16
O=[N+]([O-])c1ccc(C2=CC(c3ccccc3)=NCCN2)cc1,20 µM,40,7.9
O=C1COC(c2ccccc2)(c2ccccc2)CN1C1CCN(Cc2ccc(-n3ccnc3)cc2)CC1,16 µM,16,13
COc1ccc2nc(N(Cc3cccnc3)C(=O)C3CCC3)sc2c1,> 50 µM (inactive),> 50,50
Cc1nc(N2CC(C)OC(C)C2)sc1C(=O)Nc1ccc2c(c1)OCO2 (stereo not given),7.9 µM,> 50,3.2
O=C(Nc1nc2ccccc2[nH]1)c1c(O)c2cccc3c2n(c1=O)CC3,2 µM,> 50,1
COc1cc(-c2nc(N3CCOCC3)sc2-c2ccnc(NC3CCOCC3)n2)ccc1Cl,> 50 µM (inactive),> 50,0.02
Cc1cc2nc(CN(C)Cc3ncccc3C)[nH]c2cc1C,0.63 µM,7.9,0.5
O=C(NCC(c1cccnc1)N1CCc2ccccc2C1)C(=O)Nc1cccc(Cl)c1 (stereo not given),> 50 µM (inactive),> 50,> 50
NC(=O)c1ccc(-c2cccc(OCCN3CCN(C4CCCCC4)CC3)c2)cc1,50 µM,32,10

Structure (SMILES),IC50,IC50 [1] [µM],IC50 [2] [µM]
CC(C)(C)C(=O)Nc1cc(C2CC2)nn1-c1nc2c(c(=O)[nH]1)CCCC2,5 µM,7.9,2
c1ccc(-c2nc(NCc3ccco3)c3ccccc3n2)nc1,2.5 µM,32,2.5
Cc1ccccc1OCC(=O)N1CCCN(c2cccnn2)CC1,> 50 µM (inactive),> 50,> 50
O=C(NCCc1ccccn1)C(c1cn[nH]c1)N1CCN(c2ccc(Cl)c(Cl)c2)CC1 (stereo not given),> 50 µM (inactive),> 50,20
Cc1ccc2c(c1)-c1onc(C(=O)N3CCCCC3c3cccnc3)c1CO2 (stereo not given),> 50 µM (inactive),40,40
COc1ccc2ncc(Cl)c(CCN3CC[C@@H](NCc4cc5c(cn4)OCS5)[C@H](O)C3)c2n1,13 µM,25,7.9
Cc1sc(C)c(C(F)(F)F)c1CNCCCNc1cc(=O)c2ccccc2[nH]1,50 µM,32,25
CCCN1CCN(Cc2ccc(S(=O)(=O)Nc3cccc(C)c3)cc2)CC1,> 50 µM (inactive),> 50,> 50
Cc1ccc(S(=O)(=O)Nc2ccc(CN3CCN(C(=O)c4cccc(C#N)c4)CC3)cc2)cc1,> 50 µM (inactive),> 50,25
Clc1ccc(Sc2cnccc2N2CCOCC2)cc1,> 50 µM (inactive),> 50,10
NC(=O)c1ccccc1Nc1nc(NC2CCCCC2)nc2[nH]ccc12,13 µM,10,13
CN1CCC(N(C)c2nccc(N3CCN(C(=O)c4cccc(-c5cccnc5)c4)CC3)n2)CC1,1.3 µM,7.9,1.3
Cc1cc(N(C)C)nc(Nc2ccccc2C)n1,32 µM,40,16
CC(Cn1ccnc1)NC(=O)C=Cc1ccc(Cl)cc1 (stereo not given),> 50 µM (inactive),> 50,> 50
Cc1nn(-c2nc(N)nc(-c3ccccn3)n2)c(N)c1-c1ccccc1,3.2 µM,20,2
COc1ccc2nccc([C@H](O)CN3CC[C@H](NC(=O)c4ccc(Br)cc4)[C@@H](O)C3)c2n1,> 50 µM (inactive),> 50,> 50
CCNc1cc(-c2ccccn2)nc(Nc2ccccc2)n1,0.79 µM,20,0.63
O=c1ccc2ccc(F)c3c2n1C[C@H]3CN1CCC(NCc2cc3ccccc3o2)CC1,20 µM,32,13
COc1cnc2ccc(=O)n(CCN3CCC(NC(=O)Cc4ccc(Cl)c(Cl)c4)CC3)c2c1,40 µM,25,5
CCc1cccc(-n2nc(OCC(=O)NC3CCCC3)c3cccnc32)c1,1 µM,< 50,1.3
CC(C)COC(=O)Nc1ccc(N2CCC(CNS(=O)(=O)c3ccccc3)CC2)c(F)c1,2 µM,> 50,1.3
O=C(NCCc1csc(-c2ccc(F)cc2)n1)c1cccs1,> 50 µM (inactive),> 50,20
CC(C)c1nn(-c2nc(N)nc(-c3ccccn3)n2)c(N)c1C1CCCCC1,1 µM,5,0.79
Fc1ccccc1N1C[C@H]2CCN(c3cccnc3)C[C@H]2C1,> 50 µM (inactive),> 50,

# Source: PubChem BioAssay AID1159564 (GlaxoSmithKline (GSK), 2015)
